A melting point compilation (Tetko et al.; mined from patent text by program, amines drawn as free bases though some values may be those of a salt)
Residues, ends and D or L forms follow the SMILES beside them. *: point of attachment. Cbz = O=C(OCc1ccccc1)*

| Structure (SMILES) | melting point |
| --- | --- |
| CO[C@@H]1C(S(=O)(=O)c2ccccc2)=C[C@H](C)[C@@H](O[Si](C)(C)C(C)(C)C)[C@@H](C)[C@@H]1O[Si](C)(C)C(C)(C)C | 94 to 96 °C |
| CN1CCC(Oc2[nH]nc(-c3ccc(Cl)cc3)c2-c2ccncc2)CC1 | 256 to 257 °C |
| CCCCCCCCCCCCOC(=O)c1cccc(NC(=O)NS(=O)(=O)c2ccc(C)cc2)c1 | 110 to 112 °C |
| O=CNc1ccsc1I | 100 to 107 °C |
| Cc1cc(-c2cnn3c(C(F)(F)F)cc(-c4ccc(C(F)(F)F)c(F)c4)nc23)cc(C)n1 | 245 °C |
| CC(=O)CN1CCN(c2cc3c(cc2F)c(=O)c(C(=O)O)c2n3C(C)S2)CC1 (centres undefined) | 215 to 218 °C |
| O=C1C(=Cc2ccncc2)c2ccccc2N1c1ccccc1 | 160 to 162 °C |
| CC(Oc1ccc(CNC(=O)c2cccnc2Oc2ccc3c(c2)OCO3)c(F)c1)C(=O)O (centres undefined) | 136 to 138 °C |
| N#Cc1ncn2c1[C@@H]1CCN1C(=O)c1ccccc1-2 | 232 to 234 °C |
| CCOC(=O)[C@@H](Cc1ccccc1)C[C@H](Cc1ccccc1)C(=O)NCCC(=O)O (relative stereo) | 84 to 86 °C |
| CC(=O)CCc1cccc(C)c1NC(=O)CC1c2ccccc2Oc2ccccc21 | 179 to 180 °C |
| CCC(CC)Oc1cc(C)nc2c1nc(N)n2-c1c(C)cc(C)cc1C | 159 to 161 °C |
| CCCNC(=O)[C@H](Cc1ccccc1)NC(=O)CNC(=O)OC(C)(C)C | 166 to 168 °C |
| CC(=O)OC1CCC2C3CCC4=CC(=O)CCC4(C)C3(Br)C(F)CC12C (centres undefined) | 172 to 174 °C |
| CCOC(=N)c1c(O)ccc2ccccc12 | 145 to 146 °C |
| CC(=O)NCCOc1nc(-c2ccc(F)cc2C)c2ccc(=O)n(-c3c(F)cccc3F)c2n1 | 75 to 79 °C |
| COc1ccc(CN2CCc3cc(O)c(OC)cc3C2)cc1 | 162 to 163 °C |
| Nc1c(-c2cc(Cl)ccc2O)c2cc(C(F)(F)F)ccc2[nH]c1=O | 233 to 235 °C |
| COC(=O)NC(CCc1ccc(Cl)cc1)C(=O)O (centres undefined) | 113 to 114 °C |
| COc1c(C)c2c(c(O)c1C/C=C(\C)CCC(=O)N1C(=O)OC[C@@H]1Cc1ccccc1)C(=O)OC2 | 112 to 113 °C |
| CCC(CC)C1CC1(CN)C(=O)O (centres undefined) | 255 to 257 °C |
| CC(Cc1ccc(Cl)c(Cl)c1)C(=O)Nc1cccc2ncccc12 (centres undefined) | 168 to 170 °C |
| Cc1cccc(-c2[nH]c(C(C)C)nc2-c2ccc(F)c(-c3ccc[nH]3)c2)n1 | 103 to 106 °C |
| CN(N)C1=Nc2ccc(Cl)cc2C(c2ccccc2)=NC1 | 167 to 173 °C |
| CCC(=O)N1CCC(NC(=O)Nc2ccccc2F)CC1 | 127 to 130 °C |

| Structure (SMILES) | melting point |
| --- | --- |
| O=C1Nc2ccccc2C(=O)C1=O | > 250 °C |
| COC1(c2cccc(OCc3ccc(-n4cnc(C)c4)cc3)c2)CCOCC1 | 120 to 121 °C |
| CC(=O)Nc1nc2c(ncn2COC(COC(C)=O)COC(C)=O)c(=O)[nH]1 | 172 °C |
| COC(=O)Cc1cn(C)nc1OCc1ccc(OCc2csc(-c3ccccc3)n2)nc1 | 85 to 86 °C |
| N#CC1(c2ccc(F)cc2)CCC(N2CCC(C(=O)O)(c3ccccc3)CC2)CC1 (centres undefined) | 281 °C |
| COc1ccc(C(=O)Nc2ccccc2)cc1NCc1cccc([N+](=O)[O-])c1 | 172 to 175 °C |
| CN1C(=O)C(c2ccc(OC(F)F)cc2)(c2cccc(CCCC(F)F)c2)N=C1N (centres undefined) | 54 to 57 °C |
| CCCC(=O)/C=C/c1cn(-c2ccccc2)nc1OCc1ccc(OCc2nc(-c3ccco3)oc2C)c(OC)c1 | 167 to 168 °C |
| COc1cc(C(C)C(=O)NCC(COC(=O)C(C)(C)C)Cc2ccc(C)c(C)c2)ccc1NS(C)(=O)=O (centres undefined) | 54 to 57 °C |
| CCCCCCCCCc1cnc(-c2ccc(OCc3ccc(CCCCCC)cc3)cc2)nc1 | 51 °C |
| Clc1cccc(-c2nc3ccccn3c2-c2ccnc(-c3ccc(OCCN4CCCC4)cc3)c2)c1 | 298 °C |
| O=C(O)c1cc(Cl)cc2c1NC(c1ccccc1)CC2 (centres undefined) | 199 to 200 °C |
| COc1ccc(C2C(C(=O)c3ccc(C(C)C)cc3)=C(O)C(=O)N2c2ccc(C)nn2)cc1 (centres undefined) | 263 to 267 °C |
| Cc1cc(NC(=O)c2cc3cc(F)ccc3n2Cc2ccncc2)cnc1N(C)C | 282 to 283 °C |
| Cc1oc(-c2ccccc2)nc1COc1ccc(COc2ccc(CC(=O)O)cc2)cc1 | 166 to 167 °C |
| CCCc1nc(C)n2[nH]c(=O)nc2c1Br | 221 °C |
| CCCn1cnc2c1c(=O)n(CCCCOc1ccc(OC)cc1)c(=O)n2C | 61 to 62 °C |
| COc1cc(NC(=O)Nc2ccc3c(c2)CCN(C(=O)Nc2ccc(OCC(O)CO)cc2Cl)C3)cc(OC)c1 (centres undefined) | 108 to 110 °C |
| CCCNC(=Nc1ccc(Cl)cc1)Nc1ncccc1OCc1c(F)cccc1F | 99 to 100 °C |
| CC(=O)NC12CC3(C)CC(C)(CC(O)(C3)C1)C2 | 194 to 195 °C |
| O=Cc1[nH]cc2c1CN=C(c1ccccc1Cl)c1cc(Cl)ccc1-2 | 270 to 274 °C |
| O=C(COc1ccc2ccc(=O)oc2c1)c1ccccc1 | 163 to 165 °C |
| CC1(C)CC(OC(=O)c2ccccc2)CC(C)(C)N1OP(=O)(c1ccccc1)c1ccccc1 | 169 to 173 °C |
| COCOc1ccc(-c2ncc3ccc(-c4csc(CN5CCCCC5)c4)nc3n2)cc1 | > 268 °C |
| CCCc1cc(Cn2c(=O)ccc3c(CC)nc(CC)cc32)ccc1O[Si](C)(C)C(C)(C)C | 103 to 105 °C |

Further lines, results first:

| melting point | Structure (SMILES) |
| --- | --- |
| 131 to 135 °C | Cc1c(Cl)ccc(C(=O)c2cnn(C)c2O)c1Cl |
| 66 to 68 °C | NNC(=S)c1ccccc1 |
| 136 to 139 °C | CS(=O)(=O)Oc1ccc(-c2c3ccccc3cc3sc4ccccc4c23)cc1 |
| 205 to 206 °C | CN(Cc1c2ccccc2cc2ccccc12)C(=O)Nc1ccccc1CCc1cc(C(C)(C)C)c(O)c(C(C)(C)C)c1 |
| 205 °C | N#Cc1c(NC(=O)c2ccccc2)ccc2ccccc12 |
| 120 to 125 °C | CCc1nc2c(C)cc(C)nc2n1Cc1ccc(C(=C(Cl)C(=O)O)c2ccccc2)cc1 |
| 112 to 114 °C | CCC(COc1ccccc1COc1cccc2ccc(=O)[nH]c12)OC(C)=O (centres undefined) |
| 241 to 243 °C | NS(=O)(=O)c1cc(C(=O)O)cc([N+](=O)[O-])c1Nc1ccc(Cl)cc1 |
| 164 to 165 °C | CC(=Cc1ccc(F)cc1)COc1cc(C)c(NC=O)c(C)c1C |
| 100 to 101 °C | Nc1ccc(Br)cc1CC(F)(F)F |
| 146 to 147 °C | N#Cc1c(Nc2ccccc2)cccc1Oc1ccccc1 |
| 276 to 277 °C | Cc1ccc(N2C(=O)C(O)=C(C(=O)c3ccc(C(C)C)cc3)C2c2ccc(OC(C)(C)C)cc2)nn1 (centres undefined) |
| 253 to 254 °C | Cc1nc2c3c(c(CO)cc2n1C)CCC(c1ccccc1)N3 (centres undefined) |
| 37 to 38 °C | CN(C)CCCCCCOc1ccc(C(=O)c2ccc(F)cc2)cc1 |
| 96 to 101 °C | CCCCSc1ccccc1C(=O)O |
| 141 to 142 °C | CON=Cc1cc(-n2c(=O)cc(C(F)(F)F)n(C)c2=O)c(F)cc1Cl |
| 84 °C | O=[N+]([O-])c1ccc(Cl)cc1NC1CCN(Cc2ccccc2)CC1 |
| 236 to 237 °C | CCc1cc(Br)c2c(=O)oc(=O)[nH]c2c1 |
| 72 °C | Cc1cc(OC(F)(F)F)ccc1O |
| 188 to 190 °C | COc1ccc(-c2cc(-c3sc(N)nc3-c3cccc(C)n3)ccn2)cc1 |
| 195 to 196 °C | O=C(O)C1CCc2c(c3ccccc3n2Cc2ccccc2)C1 (centres undefined) |
| 127 to 128 °C | COc1nn(Cc2ccc(OCc3nc(-c4ccccc4)oc3C)cc2)cc1CCC(=O)O |
| 178 to 179 °C | CCCCc1ncc(C=CC(=O)O)n1Cc1ccccc1Cl |
| 100 to 101 °C | O=C(O)c1cccc(C(=O)O)c1[N+](=O)[O-] |
| 175 °C | CCOC(=O)C=Nc1c(Cl)cccc1C(=O)O |

| melting point | Structure (SMILES) |
| --- | --- |
| 198 to 201 °C | COc1ccc(-c2csc(N)n2)cc1OC |
| 115 to 116 °C | O=C(Nc1c(Cl)cnn1-c1c(F)c(F)c(C(F)(F)F)c(F)c1F)C(Cl)Cl |
| 73 to 75 °C | CCCCCC(=O)NS(=O)(=O)/C=C/c1cc(OC(C)C)nn1Cc1ccc(Cl)cc1Cl |
| 91 to 95 °C | CCCc1c(OCc2ccc(C(=O)NCCCCc3cccnc3)cc2)ccc(C(C)=O)c1O |
| 161 to 163 °C | OCc1cc(Cl)cc(CO)c1O |
| 135 °C | CCN(CC)C(=O)c1cc(-c2ccc(Cl)cc2)c2ccsc2c1 |
| 53 to 55 °C | CCCCNc1c(C(=O)OCC)c(C)nc(NCC)c1[N+](=O)[O-] |
| 170 to 172 °C | COc1cc(OC(C)C(=O)O)c2c3c(C(N)=O)cccc3n(Cc3ccccc3)c2c1 (centres undefined) |
| 117 to 118 °C | Fc1c(F)c(F)c(C(Cl)=NNc2ccccc2)c(F)c1F |
| 40 to 43 °C | COC(=O)c1cccc(S(=O)(=O)N(C)C)c1C |
| 113 to 116 °C | COC(=O)[C@H](Cc1ccccc1)NC(=O)[C@H](CC(=O)O)NC(=O)OCc1ccccc1 (Cbz-Asp-Phe-OMe) |
| 250 to 252 °C | O=C(O)CCN1CCN(c2ccc([N+](=O)[O-])cc2)CC1 |
| 132 to 135 °C | O=CC1c2ccccc2C(C=O)c2ccccc21 (centres undefined) |
| 68.5 to 69.5 °C | Cc1cc(Cl)c(N)c([N+](=O)[O-])c1 |
| 67.5 to 69 °C | CC1(OCc2ccccc2F)COC(c2ccco2)OC1 (centres undefined) |
| 184 to 185 °C | Cc1cccc(C)c1NC(=O)CN1CCN(c2ncnc3sccc23)C(C)C1 (centres undefined) |
| 49 to 50 °C | C/C=C(/COC(=O)CNC(=O)C(F)(F)F)c1ccccc1 |
| 134 to 136 °C | COc1cc(C2=NNC(=O)CC2)ccc1OCC1CO1 (centres undefined) |
| 93 to 95 °C | CC(C)(C)OC(=O)NC1(CCO)CC1 |
| 59 to 59.5 °C | COc1cc(N)c2nccc(C)c2c1OCCCCc1ccccc1 |
| 255 to 260 °C | CC1(C)OC(=O)Nc2ccc(-c3cc(C#N)cs3)cc21 |
| 182 °C | COc1cccc(NC(=O)NCC(=O)N(c2ccccc2)c2ccccc2)c1 |
| 139 to 141 °C | Cc1c(Cc2cccc(C(F)(F)F)c2)oc2cccc(-c3cccc(C(=O)NCCO)c3)c12 |
| 179 °C | O=C(Nc1cccc(Cl)c1)c1cc2ccccc2s1 |
